Measured values as given in PMC10739260, “Shape-Based Virtual Screening of a Billion-Compound Library Identifies Mycobacterial Lipoamide Dehydrogenase Inhibitors” (ACS Bio & Med Chem Au, 2023).
Read-outs that look alike come from different tables or passages of the source.

Experiments:
Mtb Lpd [1] = target: T1, Mtb Lpd (Mycobacterium tuberculosis, UniProt P9WHH9); assay: Lpd enzyme assay (spectrophotometric, DTNB, lipoamide, NADH); assay type: biochemical; details: for potency improvement over des-methyl screen hit: methylated analogue vs Z1765676493 / Z819807984, Lpd IC50; for IC50: dose response 100 to 0.005 μM, values marked * from one replicate; for inhibition at 10 µM: compound at 10 μM, read-out: LPD %inh ± SD at 10 μM
T1 construct: made in house
Protocol: The Lpd enzyme assay was performed at a CRO with a previously reported protocol.[9],[11] Briefly, the Lpd activity was measured by a spectrophotometric assay with DTNB, lipoamide, and NADH. Final concentrations of components in the reaction mixture were as follows: 125 μM NADH, 125 μM DTNB, 40 μM NAD+, 75 μM lipoamide in 25 mM potassium phosphate, and 1 mM EDTA pH 7.0. Compounds were tested initially at 10 μM. Compounds showing significant inhibition at 10 μM were tested in dose–response from 100 to 0.005 μM by serial dilutions. Curves were fit, and IC50 values were calculated using Prism dose–response inhibition analysis (four-parameter fit).

Mtb [2] = assay: Mtb MIC assay (bacterial growth inhibition); assay type: cell-based, Mycobacterium tuberculosis; details: for Mtb MIC: Table S1, known actives used as probes in GPU Shape screen
Lpd protein = target: T2, Lpd protein (Mycobacterium tuberculosis, UniProt P9WHH9); assay: Surface plasmon resonance (SPR) binding to immobilized Lpd; details: 25 °C
T2 construct: made in house
T2 sequence (P9WHH9 1-464): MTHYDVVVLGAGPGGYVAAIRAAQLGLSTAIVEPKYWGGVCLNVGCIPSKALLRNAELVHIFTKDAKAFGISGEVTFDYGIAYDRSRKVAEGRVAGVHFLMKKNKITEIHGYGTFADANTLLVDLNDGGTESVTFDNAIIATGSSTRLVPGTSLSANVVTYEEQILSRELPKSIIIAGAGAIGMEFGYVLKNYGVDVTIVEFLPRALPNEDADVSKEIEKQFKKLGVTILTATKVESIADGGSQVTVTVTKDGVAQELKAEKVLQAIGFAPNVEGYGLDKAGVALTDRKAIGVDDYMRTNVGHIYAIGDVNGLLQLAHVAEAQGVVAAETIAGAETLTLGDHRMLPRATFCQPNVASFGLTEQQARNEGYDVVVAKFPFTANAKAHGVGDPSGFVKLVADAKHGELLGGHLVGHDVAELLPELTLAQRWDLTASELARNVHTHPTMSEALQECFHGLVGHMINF

Mtb [3] = system: Mtb; parameters: method as in PMID 33527832; details: Figure 1, representative sulfonamide series inhibitors; cited from earlier work
PDH complex = target: T3, PDH complex (Mycobacterium tuberculosis, UniProt P9WHH9); assay: PDH complex inhibition; assay type: biochemical
T3 sequence (P9WHH9 1-464): T2 sequence (P9WHH9 1-464)

Mtb Lpd [4] = target: T1, Mtb Lpd; details: read-out: Lpd IC50; Figure 1, representative sulfonamide series inhibitors; cited from earlier work
[5] = 1:1 Langmuir model, analyte line 013537

In the case of `CC(=O)Nc1cccc(NC(=O)CN(C)S(=O)(=O)c2cc(C)cc(C(F)F)c2)c1` [1 (TDI-13537)], the “potency improvement over des-methyl screen hit” value (Mtb Lpd [1]) is reported as 15- to 20 fold, the “inhibition of Mtb bacterial growth in the MIC assay” value (Mtb [2]; data not shown) is reported as “did not show inhibition” and the Kd (Lpd protein; [5]) is reported as 0.241 µM. For the same compound, the kd (Lpd protein; [5]) was 0.01243 s⁻¹, the Kd (Lpd protein; analyte line 013537-NADH) was 0.291 µM and the kd (Lpd protein; analyte line 013537-NADH) was 0.01141 s⁻¹.

For `CCN(CC(=O)Nc1ccc(N2CCOCC2)cc1)S(=O)(=O)c1cc(C)c(F)c(C(F)(F)F)c1` [Compound 2], the IC50 (Mtb Lpd [1]) was 0.37 µM and the “potency improvement over des-methyl screen hit” value (Mtb Lpd [1]) was 15- to 20 fold.

Compound `CCOC(=O)c1c(C)n[nH]c1S(=O)(=O)N(C)CC(=O)Nc1ccc(F)cc1` [Compound Z740306332] has an inhibition at 10 µM (Mtb Lpd [1]) of 9.6 ± 1.8% and an IC50 (Mtb Lpd [1]) of 100 µM.

For `CCN(CC(=O)Nc1ccc(N2CCOCC2)cc1)S(=O)(=O)c1ccc(F)c(C(F)(F)F)c1` [Compound Z819807984], the inhibition at 10 µM (Mtb Lpd [1]) was 68.9 ± 0.9% and the IC50 (Mtb Lpd [1]) was 5 ± 0.04 µM.

In the case of `COC(=O)c1cccc(NC2CCN(C(=O)c3cc(C)cc4cn[nH]c34)CC2)c1` [Compound Z1464810837], the inhibition at 10 µM (Mtb Lpd [1]) is reported as 15.7 ± 4.6% and the IC50 (Mtb Lpd [1]) is reported as 30 µM.

Compound `CCN(CC(=O)Nc1cccc(OC)c1)S(=O)(=O)c1cccc2c1NC(=O)CO2` [Compound Z1601661851] has an inhibition at 10 µM (Mtb Lpd [1]) of 18.5 ± 1.6% and an IC50 (Mtb Lpd [1]) of 30 µM.

`CN(CC(=O)Nc1cccc(F)c1)S(=O)(=O)c1cccc2c1NC(=O)CO2` [Compound Z1601662276] gave an inhibition at 10 µM (Mtb Lpd [1]) of 12.7 ± 1.2% and an IC50 (Mtb Lpd [1]) of 100 µM.

With `CC(=O)Nc1cccc(NC(=O)CN(C)S(=O)(=O)c2cccc(C(F)F)c2)c1` [Compound Z1765676493] the inhibition at 10 µM (Mtb Lpd [1]) was 69.1 ± 2.2% and the IC50 (Mtb Lpd [1]) was 3.5 ± 2.8 µM.

For `COc1ccc(NC(=O)CN(C)S(=O)(=O)c2cc(Br)cnc2N)cc1` [SL827], the “Mtb MIC” value (Mtb [3]) is listed as over 100 µM.

For `Cc1cc(S(=O)(=O)N(C)CC(=O)Nc2ccn(C)c(=O)c2)c2[nH]ncc2c1` [TDI-010705], the “Mtb MIC” value (Mtb [2]) is listed as 4 µM and the “Mtb MIC” value (Mtb [3]) is listed as 3.7 µM.

In the case of `Cc1cc(S(=O)(=O)N2CCC[C@H]2C(=O)Nc2ccn(C)c(=O)c2)c2[nH]ncc2c1` [TDI-011002], the IC50 (PDH complex) is given as 0.19 µM, the “Mtb MIC” value (Mtb [2]) is given as 25 µM and the IC50 (Mtb Lpd [4]) is given as 0.05 µM. The “Mtb MIC” value (Mtb [3]) was 25 µM.
